Test results published in US6989162B2, “Hepatoprotective agent of plant origin and a process thereof” (Council of Scientific & Industrial Research, priority 2003, dated 2006).
Several values for one entry are separate records, joined by “and”; a condition that tells them apart may be missing. Equal values may be shown once.

What was measured:
[1] = test system: CCl4 induced hepatic injury; assay: Hepatoprotective potential against CCl4 induced hepatic injury in rodents (prophylactic); type: in vivo, Rodents (Albino rats, Wistar; Albino mice, Swiss); details: for % protection, GSH / % protection, LP / GSH (glutathione) / LP (lipid peroxidation): hepatic; for GSH (glutathione) / LP (lipid peroxidation) / ALP / Albumin / Bilirubin / GOT / GPT / TG: mean ± SE, six animals; for % protection, ALP / % protection, Albumin / % protection, Bilirubin / % protection, GOT / % protection, GPT / % protection, TG / ALP / Albumin / Bilirubin / GOT / GPT / TG: serum
Excerpt: The compound has been bioevaluated for hepatoprotective/antihepatotoxic activity by using a comprehensive study design annexed herewith as Annexure-2. The parameters studied during the bioevaluation to establish the bioefficacy and optimum dose were preferred using the kits (Clonital, Italy and Accurex Biomedical Pvt. Ltd Thane). The list of the parameters is given in Annexure-2 appended herewith. The dose response graphs with respect to different parameters in comparison with the standard drug with silymarin and glycyrrhizin are given in Annexure-3 appended herewith.
Hepatoprotective activity (H) was calculated by the following equation: H=[1−(TC−V/VC−V)]×100
Where TC, VC, and V are drug+toxin, vehicle+toxin and vehicle treated groups of animals respectively.

[2] = Acteoside only (per-se), serum and hepatic parameters without toxin; type: in vivo, Rodents; details: 5 mg/kg, mean ± SE, six animals
[3] = Effect on BP and respiration, I.V. in rat; type: in vivo; details: 30 μg, 100 μg, 300 μg and 1 mg I.V. in rat
[4] = test system: isolated rat colon; assay: Histamine, 5-HT and Acetylcholine induced contraction on the isolated rat colon

C[C@@H]1O[C@@H](O[C@@H]2[C@@H](O)[C@H](OCCc3ccc(O)c(O)c3)O[C@H](CO)[C@H]2OC(=O)/C=C/c2ccc(O)c(O)c2)[C@H](O)[C@H](O)[C@H]1O [Acteoside, β-(3′,4′-dihydroxyphenyl) ethyl —O-α-L-rhamnopyranosyl (1→3)-β-D-(4-O-caffeoyl)-glucopyranoside]
% protection, GSH ([1]; 0.625 mg/kg p.o. + CCl4): (27.86) %
% protection, LP ([1]; 0.625 mg/kg p.o. + CCl4): (43.53) %
GSH (glutathione) ([1]; 0.625 mg/kg p.o. + CCl4): 4.66 ± 0.28 μ mole GSH/g liver
LP (lipid peroxidation) ([1]; 0.625 mg/kg p.o. + CCl4): 61.08 ± 3.39 n mole MDA/g liver
% protection, ALP ([1]; 0.625 mg/kg p.o. + CCl4): (21.48) %
% protection, Albumin ([1]; 0.625 mg/kg p.o. + CCl4): (21.43) %
% protection, Bilirubin ([1]; 0.625 mg/kg p.o. + CCl4): (12.24) %
% protection, GOT ([1]; 0.625 mg/kg p.o. + CCl4): (36.64) %
% protection, GPT ([1]; 0.625 mg/kg p.o. + CCl4): (39.44) %
% protection, TG ([1]; 0.625 mg/kg p.o. + CCl4): (17.63) %
ALP ([1]; 0.625 mg/kg p.o. + CCl4): 66.80 ± 3.53 μ mole of p-nitrophenol formed/min/L
Albumin ([1]; 0.625 mg/kg p.o. + CCl4): 3.06 ± 0.07 g %
Bilirubin ([1]; 0.625 mg/kg p.o. + CCl4): 0.70 ± 0.03 mg %
GOT ([1]; 0.625 mg/kg p.o. + CCl4): 673.82 ± 56.28 Units (μ mole pyruvate/min/L)
GPT ([1]; 0.625 mg/kg p.o. + CCl4): 852.27 ± 47.93 Units (μ mole pyruvate/min/L)
TG ([1]; 0.625 mg/kg p.o. + CCl4): 80.15 ± 3.53 mg %
overall percent protection with reference to all the parameters studied ([1]; 1.25 mg upto 5 mg/kg, CCl4): 40-85% and 40-80%
% protection, GSH ([1]; 1.25 mg/kg p.o. + CCl4): (52.96) %
% protection, LP ([1]; 1.25 mg/kg p.o. + CCl4): (59.38) %
GSH (glutathione) ([1]; 1.25 mg/kg p.o. + CCl4): 5.93 ± 0.32 μ mole GSH/g liver
LP (lipid peroxidation) ([1]; 1.25 mg/kg p.o. + CCl4): 52.61 ± 2.25 n mole MDA/g liver
% protection, ALP ([1]; 1.25 mg/kg p.o. + CCl4): (38.72) %
% protection, Albumin ([1]; 1.25 mg/kg p.o. + CCl4): (35.00) %
% protection, Bilirubin ([1]; 1.25 mg/kg p.o. + CCl4): (34.69) %
% protection, GOT ([1]; 1.25 mg/kg p.o. + CCl4): (55.43) %
% protection, GPT ([1]; 1.25 mg/kg p.o. + CCl4): (51.01) %
% protection, TG ([1]; 1.25 mg/kg p.o. + CCl4): (27.13) %
ALP ([1]; 1.25 mg/kg p.o. + CCl4): 59.10 ± 3.09 μ mole of p-nitrophenol formed/min/L
Albumin ([1]; 1.25 mg/kg p.o. + CCl4): 3.25 ± 0.14 g %
Bilirubin ([1]; 1.25 mg/kg p.o. + CCl4): 0.59 ± 0.03 mg %
GOT ([1]; 1.25 mg/kg p.o. + CCl4): 503.42 ± 48.95 Units (μ mole pyruvate/min/L)
GPT ([1]; 1.25 mg/kg p.o. + CCl4): 787.56 ± 57.49 Units (μ mole pyruvate/min/L)
TG ([1]; 1.25 mg/kg p.o. + CCl4): 74.38 ± 3.78 mg %
% protection, GSH ([1]; 2.5 mg/kg p.o. + CCl4): (68.57) %
% protection, LP ([1]; 2.5 mg/kg p.o. + CCl4): (72.76) %
GSH (glutathione) ([1]; 2.5 mg/kg p.o. + CCl4): 6.72 ± 0.28 μ mole GSH/g liver
LP (lipid peroxidation) ([1]; 2.5 mg/kg p.o. + CCl4): 45.46 ± 2.79 n mole MDA/g liver
% protection, ALP ([1]; 2.5 mg/kg p.o. + CCl4): (56.40) %
% protection, Albumin ([1]; 2.5 mg/kg p.o. + CCl4): (56.43) %
% protection, Bilirubin ([1]; 2.5 mg/kg p.o. + CCl4): (53.06) %
% protection, GOT ([1]; 2.5 mg/kg p.o. + CCl4): (58.92) %
% protection, GPT ([1]; 2.5 mg/kg p.o. + CCl4): (59.79) %
% protection, TG ([1]; 2.5 mg/kg p.o. + CCl4): (51.06) %
ALP ([1]; 2.5 mg/kg p.o. + CCl4): 51.20 ± 1.42 μ mole of p-nitrophenol formed/min/L
Albumin ([1]; 2.5 mg/kg p.o. + CCl4): 3.55 ± 0.22 g %
Bilirubin ([1]; 2.5 mg/kg p.o. + CCl4): 0.50 ± 0.03 mg %
GOT ([1]; 2.5 mg/kg p.o. + CCl4): 471.81 ± 26.40 Units (μ mole pyruvate/min/L)
GPT ([1]; 2.5 mg/kg p.o. + CCl4): 662.62 ± 39.80 Units (μ mole pyruvate/min/L)
TG ([1]; 2.5 mg/kg p.o. + CCl4): 59.85 ± 1.88 mg %
% protection, GSH ([1]; 5.0 mg/kg p.o. + CCl4): (74.50) %
% protection, LP ([1]; 5.0 mg/kg p.o. + CCl4): (75.07) %
GSH (glutathione) ([1]; 5.0 mg/kg p.o. + CCl4): 7.02 ± 0.46 μ mole GSH/g liver
LP (lipid peroxidation) ([1]; 5.0 mg/kg p.o. + CCl4): 44.22 ± 1.66 n mole MDA/g liver
% protection, ALP ([1]; 5.0 mg/kg p.o. + CCl4): (67.21) %
% protection, Albumin ([1]; 5.0 mg/kg p.o. + CCl4): (82.14) %
% protection, Bilirubin ([1]; 5.0 mg/kg p.o. + CCl4): (69.38) %
% protection, GOT ([1]; 5.0 mg/kg p.o. + CCl4): (70.49) %
% protection, GPT ([1]; 5.0 mg/kg p.o. + CCl4): (66.08) %
% protection, TG ([1]; 5.0 mg/kg p.o. + CCl4): (68.42) %
ALP ([1]; 5.0 mg/kg p.o. + CCl4): 46.37 ± 1.89 μ mole of p-nitrophenol formed/min/L
Albumin ([1]; 5.0 mg/kg p.o. + CCl4): 3.91 ± 0.12 g %
Bilirubin ([1]; 5.0 mg/kg p.o. + CCl4): 0.42 ± 0.02 mg %
GOT ([1]; 5.0 mg/kg p.o. + CCl4): 366.89 ± 26.97 Units (μ mole pyruvate/min/L)
GPT ([1]; 5.0 mg/kg p.o. + CCl4): 573.10 ± 28.25 Units (μ mole pyruvate/min/L)
TG ([1]; 5.0 mg/kg p.o. + CCl4): 49.31 ± 1.47 mg %
overall protection compared with silymarin ([1]; silymarin at 10-20 times the dosage of acteoside): better than that rendered by silymarin
GSH (glutathione) ([2]; no CCl4, hepatic): 8.33 ± 0.33 μ mole GSH/g liver
LP (lipid peroxidation) ([2]; no CCl4, hepatic): 30.52 ± 1.38 n mole MDA/g liver
ALP ([2]; no CCl4, serum): 31.87 ± 2.15 μ mole of p-nitrophenol formed/min/L
Albumin ([2]; no CCl4, serum): 4.66 ± 0.18 g %
Bilirubin ([2]; no CCl4, serum): 0.27 ± 0.02 mg %
GOT ([2]; no CCl4, serum): 94.71 ± 5.29 Units (μ mole pyruvate/min/L)
GPT ([2]; no CCl4, serum): 98.91 ± 5.30 Units (μ mole pyruvate/min/L)
TG ([2]; no CCl4, serum): 31.10 ± 2.39 mg %
effect on BP [3]: O: There is no effect on BP and Respiration in the doses of 30 μg, 100 μg, 300 μg and 1 mg I.V. in rat as there is no change in base line.
effect on Respiration [3]: O: There is no effect on BP and Respiration in the doses of 30 μg, 100 μg, 300 μg and 1 mg I.V. in rat as there is no change in base line.
effect on 5-HT induced contraction [4]: O: There is no change in the base line against the Histamine, 5-HT and Acetylcholine induced contraction on the isolated rat colon.
effect on Acetylcholine induced contraction [4]: O: There is no change in the base line against the Histamine, 5-HT and Acetylcholine induced contraction on the isolated rat colon.
effect on Histamine induced contraction [4]: O: There is no change in the base line against the Histamine, 5-HT and Acetylcholine induced contraction on the isolated rat colon.

CC1(C)[C@@H](O[C@H]2O[C@H](C(=O)O)[C@@H](O)[C@H](O)[C@H]2O[C@@H]2O[C@H](C(=O)O)[C@@H](O)[C@H](O)[C@H]2O)CC[C@]2(C)[C@H]3C(=O)C=C4[C@@H]5C[C@@](C)(C(=O)O)CC[C@]5(C)CC[C@@]4(C)[C@]3(C)CC[C@@H]12 [Glycyrrhizin, reference compound]
% protection, GSH ([1]; 100 mg/kg p.o. + CCl4): (53.55) %
% protection, LP ([1]; 100 mg/kg p.o. + CCl4): (56.08) %
GSH (glutathione) ([1]; 100 mg/kg p.o. + CCl4): 5.96 ± 0.26 μ mole GSH/g liver
LP (lipid peroxidation) ([1]; 100 mg/kg p.o. + CCl4): 54.37 ± 4.82 n mole MDA/g liver
% protection, ALP ([1]; 100 mg/kg p.o. + CCl4): (46.48) %
% protection, Albumin ([1]; 100 mg/kg p.o. + CCl4): (38.57) %
% protection, Bilirubin ([1]; 100 mg/kg p.o. + CCl4): (42.85) %
% protection, GOT ([1]; 100 mg/kg p.o. + CCl4): (56.44) %
% protection, GPT ([1]; 100 mg/kg p.o. + CCl4): (53.87) %
% protection, TG ([1]; 100 mg/kg p.o. + CCl4): (42.07) %
ALP ([1]; 100 mg/kg p.o. + CCl4): 55.63 ± 3.52 μ mole of p-nitrophenol formed/min/L
Albumin ([1]; 100 mg/kg p.o. + CCl4): 3.30 ± 0.12 g %
Bilirubin ([1]; 100 mg/kg p.o. + CCl4): 0.55 ± 0.04 mg %
GOT ([1]; 100 mg/kg p.o. + CCl4): 494.27 ± 36.28 Units (μ mole pyruvate/min/L)
GPT ([1]; 100 mg/kg p.o. + CCl4): 746.87 ± 49.77 Units (μ mole pyruvate/min/L)
TG ([1]; 100 mg/kg p.o. + CCl4): 65.31 ± 3.69 mg %
